Structures are written as SMILES.

Holding throughout (type): in vivo
The subject of assay [1] is Diabrotica balteata. The assay is described as follows: Diabrotica balteata spray test (germinated wheat grains). To be noted: 168 h, application rate 100 g/ha (=32 μg/cavity), after 7 days, beetle larvae on wheat, 100% = all wheat plants grown as in untreated, uninfected control, read-out: efficacy in %. The text has this: Diabrotica Balteata—Spray Test Solvent: 78 parts by weight of acetone • • 1.5 parts by weight of dimethylformamide Emulsifier: alkylaryl polyglycol ether An appropriate active ingredient formulation is produced by dissolving 1 part by weight of active ingredient with the stated parts by weight of solvent and making the solution up to the desired concentration with water containing an emulsifier concentration of 1000 ppm. Further test concentrations are produced by diluting the formulation with emulsifier-containing water. Pre-swollen wheat grains (Triticum aestivum) are incubated in a multiwell plate filled with agar and a little water for one day (5 seed grains per cavity). The germinated wheat grains are sprayed with an active ingredient formulation of the desired concentration. Subsequently, each cavity is infected with 10-20 beetle larvae of Diabrotica balteata. After 7 days, efficacy in % is determined. 100% means that all wheat plants have grown as in the untreated, uninfected control; 0% means that no wheat plant has grown.

Assay [2] relates to Spodoptera frugiperda. The assay is described as follows: Spodoptera frugiperda spray test (maize leaf disks). The note with it: foliar, 168 h, application rate 100 g/ha, caterpillars, after 7 days, 100% = all caterpillars killed, read-out: efficacy in %. The text has this: Spodoptera frugiuerda—Spray Test
Solvent: 78.0 parts by weight of acetone • • 1.5 parts by weight of dimethylformamide
Emulsifier: alkylaryl polyglycol ether
An appropriate active ingredient formulation is produced by dissolving 1 part by weight of active ingredient with the stated parts by weight of solvent and making the solution up to the desired concentration with water containing an emulsifier concentration of 1000 ppm. Further test concentrations are produced by diluting the formulation with emulsifier-containing water.
Leaf disks of maize (Zea mays) are sprayed with an active ingredient formulation of the desired concentration and, after drying, populated with caterpillars of the fall armyworm (Spodopterafrugiperda).
After 7 days, efficacy in % is determined. 100% means that all of the caterpillars have been killed; 0% means that none of the caterpillars have been killed.

Assay [3] relates to Nezara viridula. Nature of the assay: Nezara viridula spray test (barley plants). The note with it: 96 h, application rate 500 g/ha, larvae, after 4 days, 100% = all shield bugs killed, read-out: efficacy in %. An excerpt:
(§1) Nezara viridula—Spray Test Solvent: 78.0 parts by weight of acetone • • 1.5 parts by weight of dimethylformamide Emulsifier: alkylaryl polyglycol ether An appropriate active ingredient formulation is produced by dissolving 1 part by weight of active ingredient with the stated parts by weight of solvent and making the solution up to the desired concentration with water containing an emulsifier concentration of 1000 ppm. Further test concentrations are produced by diluting the formulation with emulsifier-containing water. Barley plants (Hordeum vulgare) are sprayed with an active ingredient formulation of the desired concentration and are infected with larvae of the Southern green shield bug (Nezara viridula). After 4 days, efficacy in % is determined. 100% means that all of the shield bugs have been killed; 0% means that none of the shield bugs have been killed.

Assay [4] deals with Meloidogyne incognita. Nature of the assay: Meloidogyne incognita test (lettuce, gall formation). The note with it: application rate 20 ppm, after 14 days, 100% = no galls found. An excerpt:
Meloidogyne Incognita Test Solvent: 125.0 parts by weight of acetone An appropriate active ingredient formulation is produced by mixing 1 part by weight of active ingredient with the stated amount of solvent and diluting the concentrate to the desired concentration with water. Vessels are filled with sand, active ingredient solution, an egg/larvae suspension of the southern root-knot nematode (Meloidogyne incognita) and lettuce seeds. The lettuce seeds germinate and the plants develop. The galls develop on the roots. After 14 days, the nematicidal efficacy in % is determined by the formation of galls. 100% means that no galls were found; 0% means that the number of galls on the treated plants corresponds to the untreated control.

The subject of assay [5] is Myzus persicae. Nature of the assay: Myzus persicae spray test (Chinese cabbage leaf disks). The note with it: application rate 100 g/ha, after 5 days, 100% = all aphids killed.
Source text: as §1, with “Myzus persicae—Spray” for “Nezara viridula—Spray”, “78” for “78.0”, “Leaf disks of Chinese cabbage (Brassica pekinensis) infested by all stages of the green peach aphid (Myzus persicae)” for “Barley plants (Hordeum vulgare)”, “concentration.” for “concentration and are infected with larvae of the Southern green shield bug (Nezara viridula).”, “5” for “4”, “aphids” for “shield bugs”

Assay [6] has as its system Nilaparvata lugens. The assay is described as follows: Nilaparvata lugens test (rice plants). To be noted: application rate 500 g/ha, spray, after 4 days, 100% = all planthoppers killed. The text has this:
Nilaparvata lugens Test Solvent: 78.0 parts by weight of acetone • • 1.5 parts by weight of dimethylformamide Emulsifier: alkylaryl polyglycol ether An appropriate active ingredient formulation is produced by dissolving 1 part by weight of active ingredient with the stated parts by weight of solvent and making the solution up to the desired concentration with water containing an emulsifier concentration of 1000 ppm. Further test concentrations are produced by diluting the formulation with emulsifier-containing water. Rice plants (Oryza sativa) are sprayed with the active ingredient formulation of the desired concentration and then infected with the brown planthopper (Nilaparvata lugens). After 4 days, efficacy in % is determined. 100% means that all of the planthoppers have been killed; 0% means that none of the planthoppers have been killed.

As to `CCS(=N)(=O)c1c(-c2nc3cc4c(cc3n2C)OC(F)(F)C(F)(F)O4)nc(-c2ccc(F)cc2)n1C` (stereo not drawn) [Example I-38], the pest or weed control at 100 g/ha in assay [1] and in assay [2] was 100% each time. Moreover, the pest or weed control at 500 g/ha in assay [3] was found to be 90%. Moreover, in assay [4], the “nematicidal efficacy in % (formation of galls)” value (“nematicidal efficacy in %” below) turned out to be 100%. The compound also had an efficacy in % in assay [5] of 90%.
For `CCS(=O)(=O)c1c(-c2nc3cc4c(cc3n2C)OC(F)(F)C(F)(F)O4)nc(-c2cccc(Br)n2)n1C` [Example I-30, 2-[2-(6-Bromopyridin-2-yl)-5-(ethylsulfonyl)-1-methyl-1H-imidazol-4-yl]-6,6,7,7-tetrafluoro-1-methyl-6,7-dihydro-1H-[1,4]dioxino[2,3-f]benzimidazole], the pest or weed control at 100 g/ha in assay [1] and in assay [2] was 100% in each case. For the same compound, the pest or weed control at 500 g/ha in assay [3] turned out to be 100%. The same compound gave an efficacy in % in assay [6] of 100%.
Consider `CCS(=O)(=O)c1c(-c2nc3cc4c(cc3n2C)OC(F)(F)C(F)(F)O4)nc(-c2ccc(C3(C#N)CC3)cc2)n1C` [Example I-6, 1-{4-[5-(Ethylsulfonyl)-1-methyl-4-(6,6,7,7-tetrafluoro-1-methyl-6,7-dihydro-1H-[1,4]dioxino[2,3-f]benzimidazol-2-yl)-1H-imidazol-2-yl]phenyl}cyclopropanecarbonitrile], for which the pest or weed control at 100 g/ha in assay [1] and in assay [2] was 100% throughout. Besides, the pest or weed control at 500 g/ha in assay [3] amounted to 100%. Moreover, in assay [4], the “nematicidal efficacy in %” value stood at 100%.
Regarding `CCS(=N)(=O)c1c(-c2nc3cc4c(cc3n2C)OC(F)(F)C(F)(F)O4)nc(-c2ccc(C(F)(F)F)cc2)n1C` (stereo not drawn) [Example I-37], the figures for the pest or weed control at 100 g/ha in assay [1] and in assay [2] were 80% and 100%, respectively. Further, in assay [4], the “nematicidal efficacy in %” value came to 90%.
For the compound `CCS(=N)(=O)c1c(-c2nc3cc4c(cc3n2C)OC(F)(F)C(F)(F)O4)nc(-c2ccc(Cl)cc2)n1C` (racemic) [Example I-34, rac-2-[2-(4-Chlorophenyl)-5-(ethylsulfonimidoyl)-1-methyl-1H-imidazol-4-yl]-6,6,7,7-tetrafluoro-1-methyl-6,7-dihydro-1H-[1,4]dioxino[2,3-f]benzimidazole], the pest or weed control at 100 g/ha in assay [1] and in assay [2] was 100% throughout. Also, the “nematicidal efficacy in %” value in assay [4] is on record as 90%. This compound also returned an efficacy in % in assay [5] of 90%.
For `CCS(=O)(=O)c1c(-c2nc3cc4c(cc3n2C)OC(F)(F)C(F)(F)O4)nc(-c2ccccc2)n1C` [Example I-16, 2-[5-(Ethylsulfonyl)-1-methyl-2-phenyl-1H-imidazol-4-yl]-6,6,7,7-tetrafluoro-1-methyl-6,7-dihydro-1H-[1,4]dioxino[2,3-f]benzimidazole], the pest or weed control at 100 g/ha in assay [1] and in assay [2] was 100% each time. In assay [3], the pest or weed control at 500 g/ha came out at 100%. In assay [5], this compound yielded an efficacy in % of 90%.
Turning to `CCS(=O)(=O)c1c(-c2nc3cc4c(cc3n2C)OC(F)(F)C(F)(F)O4)nc(-c2cccc(C3(C#N)CC3)n2)n1C` [Example I-28, 1-{6-[5-(Ethylsulfonyl)-1-methyl-4-(6,6,7,7-tetrafluoro-1-methyl-6,7-dihydro-1H-[1,4]dioxino[2,3-f]benzimidazol-2-yl)-1H-imidazol-2-yl]pyridin-2-yl}cyclopropanecarbonitrile], the pest or weed control at 100 g/ha in assay [2] turned out to be 100%. Further, in assay [3], the pest or weed control at 500 g/ha was 100%. The efficacy in % in assay [6] is reported as 100%.
For `CCS(=O)(=O)c1c(-c2nc3cc4c(cc3n2C)OC(F)(F)C(F)(F)O4)nc(-c2ccc(Cl)cc2)n1C` [Example I-4, 2-[2-(4-Chlorophenyl)-5-(ethylsulfonyl)-1-methyl-1H-imidazol-4-yl]-6,6,7,7-tetrafluoro-1-methyl-6,7-dihydro-1H-[1,4]dioxino[2,3-f]benzimidazole], the pest or weed control at 100 g/ha in assay [1] came to 80%; in assay [2] it was 100%. Moreover, the “nematicidal efficacy in %” value in assay [4] worked out at 90%.
